Consider seven molecules from US11369595B2, “Use of tryptophan metabolites for treating muscle atrophy” (METABRAIN RESEARCH, priority 2016, dated 2022).

For assay [1], the system named is C2C12 muscle cells. In words: Measurement of protein synthesis in C2C12 cells (radio-labeled leucine incorporation). It is filed as cell-based. To be noted: for effect on protein synthesis in C2C12 muscle cells: 150 min incubation, radio-labeled leucine, versus DMSO control. The method, then:
The cells are counted and seeded at the density of 20 000 cells per well in a 24-well plate in DMEM medium containing glucose in a proportion of 4.5 g/l and supplemented with fetal calf serum (10%) and with antibiotics (penicillin and streptomycin). Forty-eight hours layer, the myoblasts are induced to differentiate by partial serum deprivation (2% instead of 10%) for 5 days. The cells are then placed in medium without glucose or leucine (Krebs medium) for 1 h at 37° C., then incubated for 150 min in the presence of the products to be tested (DMSO (control), kynurenic acid or anthranilic acid or quinolinic acid or picolinic acid or 3OH-kynurenine) or reference (IGF-1, 100 ng/ml) in serum-free DMEM medium containing 2.5 μCi/ml radio-labeled leucine. At the end of the incubation, the supernatants are removed and the cells are lysed in 0.1N NaOH solution for 30 min. The radioactivity is measured in the cell fraction and the total amount of proteins is determined by assaying according to the Lowry method. Each condition is evaluated at least with n=6; IGF-1, 100 ng/ml is our control for stimulating protein synthesis. The results are expressed in cpm/μg of proteins after 150 min of incubation or as a percentage relative to the control condition. The results are expressed as % of the control and a statistical test is carried out: Dunnett's or Dun test (*p<0.05, **p<0.01, ***p<0.001 versus control). The results obtained with kynurenic acid, anthranilic acid, quinolinic acid, picolinic acid and 3OH-kynurenin are represented in FIGS. 1 to 5.

For assay [2], the system named is loss of muscle mass. To be noted: mice on a protein-poor diet, supplementation; cited from earlier work.
The subject of assay [3] is C2C12 muscle fibers. In words: Evaluation of the diameter of the C2C12 muscle fibers. Particulars: incubation for 3 days, 100 μM. In kind it is cell-based. The method, then: The C2C12 myoblast cells (ATCC CRL-1772) are seeded in 8-well plates treated with glycerol, at the density of 10 000 cells per well and cultured in DMEM medium containing glucose in a proportion of 4.5 g/l and supplemented with fetal calf serum (10%) and with antibiotics (penicillin and streptomycin). Forty-eight hours layer, the myoblasts are induced to differentiate by partial serum deprivation (2% instead of 10%) for 3 days. The cells are then placed in a serum-free, glucose-depleted medium (DMEM containing 1 g/l of glucose) in the presence of the molecules to be tested (DMSO (control) or kynurenic acid) or the references (IGF-1 at the concentration of 10 ng/ml or dexamethasone at 10 μM) for 3 days. At the end of the culture, the cells are rinsed and fixed using a 2.5% glutaraldehyde/0.1% triton solution for 1 h at ambient temperature. The cell layer is covered with DAPI (fluorescent labeling of the cell nucleus). After storage in the dark for 16 h in the cold, the slides are observed under a fluorescence microscope (Carl Zeiss, AxioVert 200) and the images are analyzed using the Axiovision 4.1 software for measuring the diameter of the fibers. A representative image of each condition is shown. A statistical test is carried out: Dunnett's or Dun test (*p<0.05, **p<0.01, ***p<0.001 versus control). The results obtained with kynurenic acid are represented in FIG. 7.

Assay [4] concerns muscle atrophy induced by immobilization. In words: Muscle atrophy induced by immobilization in mice. In kind it is in vivo. To be noted: CD1 mice, 7 days immobilization, 3 mg/kg per day in the drinking water, compared with control group. From the text:
Limb immobilization is known to induce skeletal muscle atrophy involving mechanisms linked to protein degradation, to a change in muscle fiber types, to oxidative stress or inflammatory mechanisms. Briefly, male 8-9-week-old CD1 mice were used in this study. The foot of the left hindlimb was immobilized for 7 days according to the procedure described by Caron et al. (2009), in the dorso-tibial flexion position, by means of a surgical staple. The other foot (right hindlimb) is used as a control. For the duration of the immobilization, one group of animals (n=12) received a treatment with kynurenic acid (3 mg/kg per day) in the drinking water. Another group of animals served as a control (n=16 animals). At the end of the 7 days of study, the animals were sacrificed in order to remove the Tibialis anterial muscle from the two hindlimbs. For each animal, the difference between the weight of the muscle of the immobilized limb and the free limb is calculated, then related back to the bodyweight. The results are expressed as weight loss of the immobilized limb relative to the control limb (in mg per g of body weight), and a statistical test is carried out: Student's test (*p<0.05, **p<0.01, ***p<0.001 versus control group).

The subject of assay [5] is myostatin gene expression in C2C12 muscle cells. In words: Measurement of myostatin gene expression in C2C12 cells (RT-qPCR). In kind it is cell-based. To be noted: 6 hours of incubation, standardized to beta-actin. As to the method:
The C2C12 myoblast cells (ATCC CRL-1772) are seeded in 24-well plates at the density of 30 000 cells per well and cultured in a DMEM medium containing glucose in a proportion of 4.5 g/l and supplemented with fetal calf serum (10%) and with antibiotics (penicillin and streptomycin). Forty-eight hours later, the myoblasts are induced to differentiate by partial serum deprivation (2% instead of 10%) for 5 days. The cells are then placed in a serum-free, glucose-depleted medium (DMEM containing 1 g/l of glucose) in the presence of the molecules to be tested (DMSO (control) or IGF-1 (100 ng/ml) or kynurenic acid) or of the references (IGF-1 at the concentration of 100 ng/ml) for 6 h. […] The samples analyzed all contain […] of cDNA, a qPCR buffer including the enzyme, the oligonucleotide mixture and the intercalating agent (sybergreen), and the pair of primers specific for the gene studied, strategically chosen between two exon sequences and at the final concentration of 200 nM. […] A fluorescence threshold is established by the program of the machine. […] It is this value which forms the basis for the calculations to relatively quantify the DNA. […] The primers used are given in table 1 below: At the end of the incubation, the expression of the myostatin gene is measured by RT-qPCR and standardized using the beta-actin housekeeping gene. […]

Each structure is given as a SMILES string.

On to `Nc1c(O)cccc1C(=O)C[C@H](N)C(=O)O` [3OH-kynurenine, reference compound], for which the “effect on protein synthesis in C2C12 muscle cells” value (from here on “effect on protein synthesis”) in assay [1] was “no effect on protein synthesis”. Consider `Nc1ccccc1C(=O)C[C@H](N)C(=O)O` [L-kynurenine], for which the “effect on loss of muscle mass” value in assay [2] is listed as “varies according to the dose tested (beneficial or negative)”. As for `N[C@@H](Cc1c[nH]c2ccccc12)C(=O)O` [TRP, Tryptophan], the “effect on loss of muscle mass” value in assay [2] is “capable of reducing the loss of muscle mass”. `Nc1ccccc1C(=O)O` [anthranilic acid]: the “effect on protein synthesis” value in assay [1] is recorded as “significantly induce protein synthesis”.

Consider `O=C(O)c1cc(=O)c2ccccc2[nH]1` [kynurenic acid], for which the “size (diameter) of the C2C12 muscle fibers” value in assay [3] is reported as “increase in the size of the C2C12 muscle fibers”. In addition, in assay [1], the “effect on protein synthesis” value is on record as “significantly induce protein synthesis”. Further, the “dose dependence of stimulation of protein synthesis” value in assay [1] (after 150 min of incubation) is listed as “dose-dependent stimulation of protein synthesis”. Besides, the “loss of muscle (Tibialis anterior) mass induced by immobilization” value in assay [4] is on record as “significantly decreases the loss of muscle”. The myostatin gene expression result in assay [5] was “significant dose-dependent inhibition”. For the molecule `O=C(O)c1ccccn1` [picolinic acid], in assay [1], the “effect on protein synthesis” value is “significantly induce protein synthesis”. Same read-out and setting: as for `O=C(O)c1cccnc1C(=O)O` [quinolinic acid], the entry is “significantly induce protein synthesis”.
